9 compounds from US20240425523A1, “Compounds for the Degradation of EGFR Kinase” (Beigene Switzerland GMBH, priority 2023, published 2024) can be followed below.

What all share (type): cell-based
Test [1] addresses T1, EGFR L858R (BaF3-L858R cells) (Homo sapiens, UniProt P00533, L858R).
T1 construct: host or cells: BaF3
Put plainly: Cell degradation of EGFR, HTRF assay, BaF3-L858R cells. The note with it: 16 h treatment; for DC50: EGFR degradation; for Dmax: maximum percentage of degradation. The essentials: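 BaF3-L858R cells treated 16 h at 37° C, 5% CO2 with compound (top 10 uM final, 5-fold, 8 doses, 0.1% DMSO). DC50 from four-parameter fit; Dmax is maximum percent degradation.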

Test [2] deals with T2, EGFR-L858R/C797S (H1975-clone #8 cells) (Homo sapiens, UniProt P00533, C797S/L858R).
T2 construct: expressed in transfected cells; host or cells: H1975 (endogenous EGFR knocked out, clone #8)
Put plainly: Cell degradation of EGFR, HTRF assay, H1975-clone#8 (L858R/C797S) cells. The note with it: 16 h treatment; for DC50: EGFR degradation; for Dmax: maximum percentage of degradation.

In test [3] the target is T3, p-EGFR L858R (BaF3-L858R cells) (Homo sapiens, UniProt P00533, L858R).
T3 construct: host or cells: BaF3
The experiment in a line: Cell p-EGFR inhibition assay, HTRF, BaF3-L858R cells. The note with it: 16 h treatment; for Imax (%): maximum percentage of pEGFR inhibition; for pIC50: pEGFR inhibition. The essentials: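 BaF3-L858R cells treated 16 h at 37 °C, 5% CO2 with compound from 10 uM top, 5-fold dilutions, 8 doses, in 0.1% DMSO medium. Lysates read overnight by HTRF p-EGFR antibodies; IC50 fitted to four-parameter curve against DMSO high control.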

Test [4] concerns the target p-EGFR Del19/C797S (H1975-clone #23 cells) (Homo sapiens, UniProt P00533). Put plainly: Cell p-EGFR inhibition assay, HTRF, H1975-clone#23 (DEL19/C797S) cells. As to conditions: 16 h treatment; for Imax (%): maximum percentage of pEGFR inhibition; for pIC50: pEGFR inhibition. The essentials:
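Phospho-EGFR read by overnight HTRF on lysates, normalized to DMSO-treated high control; IC50, Hill slope and Imax fitted. Compounds were applied for 16 h (10 uM top, 5-fold steps, 8 doses) to an H1975 single clone carrying only exogenous Del19/C797S EGFR after sgRNA knockout of endogenous copies.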

pIC50: −log10 of the molar value.

In test [1], `CC[C@@H]1CN(c2ccc3c(c2)N2C[C@@H]4CC[C@H](COc5c(c(C)nn5C)-c5cc(cc(C)n5)C(=O)/N=C/2N3)C4)CCN1C1CCN(c2cc(F)c([C@H]3CCC(=O)NC3=O)c(F)c2)CC1` [Example 188, (R)-3-(4-(4-((R)-2-ethyl-4-((7^1R,7^3S,E)-1^1,1^3,2^6-trimethyl-3-oxo-5^2,5^3-dihydro-1^1H,5^1H-9-oxa-4-aza-5(2,1)-benzo[d]imidazola-2(2,4)-pyridina-1(4,5)-pyrazola-7(1,3)-cyclopentanacyclononaphane-5^6-yl)piperazin-1-yl)piperidin-1-yl)-2,6-difluorophenyl)piperidine-2,6-dione] had a DC50 of 4.2 nM and a Dmax of 93.2%. In test [2], this compound yielded a DC50 of 3.78 nM and a Dmax of 84.9%. Moreover, in test [3], the “Imax (%)” value amounted to 90.67% and the pIC50 was more than 9.89. Moreover, in test [4], the “Imax (%)” value is 99.79% and the pIC50 is 8.71.

`Cc1cc2cc(n1)-c1cnn(C)c1OC[C@H]1CCC(C1)CN1/C(=N/C2=O)Nc2ccc(N3CC4(CCN(C5CN(c6cc(F)c([C@H]7CCC(=O)NC7=O)c(F)c6)C5)CC4)C3)cc21` [Example 126, (R)-3-(4-(3-(2-((7^1R,7^3S,E)-1^1,2^6-dimethyl-3-oxo-5^2,5^3-dihydro-1^1H,5^1H-9-oxa-4-aza-5(2,1)-benzo[d]imidazola-2(2,4)-pyridina-1(4,5)-pyrazola-7(1,3)-cyclopentanacyclononaphane-5^6-yl)-2,7-diazaspiro[3.5]nonan-7-yl)azetidin-1-yl)-2,6-difluorophenyl)piperidine-2,6-dione]: the results for the DC50 in test [1] and in test [2] were 2.04 nM and 1.49 nM, respectively. For the same compound, the Dmax was determined as 83.3% in test [1] and 73.7% in test [2]. The “Imax (%)” value in test [3] is 99.16%; in test [4], 102.92%. Also, the pIC50 in test [3] is 7.88; in test [4] it was 8.84.

In test [1], `Cc1cc2cc(n1)-c1cnn(C)c1OC[C@H]1CCC(C1)CN1/C(=N/C2=O)Nc2ccc(N3CCN([C@@H]4CCN(c5ccc(OC6CCC(=O)NC6=O)cc5F)C[C@@H]4F)CC3)cc21` (stereo partly drawn) [Example 115, 3-(4-((3S,4R)-4-(4-((7^1R,7^3S,E)-1^1,2^6-dimethyl-3-oxo-5^2,5^3-dihydro-1^1H,5^1H-9-oxa-4-aza-5(2,1)-benzo[d]imidazola-2(2,4)-pyridina-1(4,5)-pyrazola-7(1,3)-cyclopentanacyclononaphane-5^6-yl)piperazin-1-yl)-3-fluoropiperidin-1-yl)-3-fluorophenoxy)piperidine-2,6-dione] returned a DC50 of 1.6 nM and a Dmax of 81.9%. In addition, in test [2], half-maximal degradation (DC50) was put at 2.84 nM and the Dmax was determined as 81.1%. In test [3], the “Imax (%)” value came out at 97.7% and the pIC50 is 8.41. For the same compound, in test [4], the “Imax (%)” value turned out to be 99.8% and the pIC50 is 8.89.

For `COC[C@H]1CN(c2ccc3c(c2)N2C[C@H]4CC[C@@H](COc5c(c(C)nn5C)-c5cc(cc(C)n5)C(=O)/N=C/2N3)C4)CCN1C1CCN(c2cc(F)c([C@H]3CCC(=O)NC3=O)c(F)c2)CC1` [Example 150, (R)-3-(2,6-difluoro-4-(4-((R)-2-(methoxymethyl)-4-((7S,7^3R,E)-1^1,1^3,2^6-trimethyl-3-oxo-5^2,5^3-dihydro-1^1H,5^1H-9-oxa-4-aza-5(2,1)-benzo[d]imidazola-2(2,4)-pyridina-1(4,5)-pyrazola-7(1,3)-cyclopentanacyclononaphane-5^6-yl)piperazin-1-yl)piperidin-1-yl)phenyl)piperidine-2,6-dione], the DC50 in test [1] was 8.77 nM; in test [2], 7.29 nM. For the same compound, the Dmax is 90.5% in test [1] and 85% in test [2]. Moreover, the entries for the “Imax (%)” value in test [3] and in test [4] were 91.27% and 100.12%, respectively. The pIC50 in test [3] was 7.14; in test [4], 8.67.

In the case of `Cc1cc2cc(n1)-c1c(C)nn(C)c1OC[C@H]1CC[C@H](C1)CN1/C(=N/C2=O)Nc2ccc(N3CCC(NC4CN(c5c(F)cc(OC6CCC(=O)NC6=O)cc5F)C4)CC3)cc21` (stereo partly drawn) [Example 158, 3-(3,5-difluoro-4-(3-((1-((7^1R,7^3S,E)-1^1,1^3,2^6-trimethyl-3-oxo-5^2,5^3-dihydro-1^1H,5^1H-9-oxa-4-aza-5(2,1)-benzo[d]imidazola-2(2,4)-pyridina-1(4,5)-pyrazola-7(1,3)-cyclopentanacyclononaphane-5^6-yl)piperidin-4-yl)amino)azetidin-1-yl)phenoxy)piperidine-2,6-dione], in test [1], the DC50 is 3.75 nM and the Dmax is 79.8%. For the same compound, in test [2], half-maximal degradation (DC50) was put at 4.39 nM and the Dmax was 77.3%. In addition, in test [3], the “Imax (%)” value came out at 95.45% and the pIC50 was 7.14. In test [4], the “Imax (%)” value is 100.46% and the pIC50 is 8.44.

`COC[C@H]1CN(c2cc3c(cc2C)N/C2=N\C(=O)c4cc(C)nc(c4)-c4c(C)nn(C)c4OC[C@H]4CC[C@H](C4)CN23)CCN1C1CCN(c2cc(F)c([C@H]3CCC(=O)NC3=O)c(F)c2)CC1` [Example 172, (R)-3-(2,6-difluoro-4-(4-((R)-2-(methoxymethyl)-4-((7^1R,7^3S,E)-1^1,1^3,2^6° 5^5-tetramethyl-3-oxo-5^2,5^3-dihydro-1^1H,5^1H-9-oxa-4-aza-5(2,1)-benzo[d]imidazola-2(2,4)-pyridina-1(4,5)-pyrazola-7(1,3)-cyclopentanacyclononaphane-5^6-yl)piperazin-1-yl)piperidin-1-yl)phenyl)piperidine-2,6-dione]: the DC50 in test [1] came to 5.09 nM; in test [2], 0.909 nM. Further, the Dmax in test [1] turned out to be 84.8%; in test [2] it was 85.6%. Also, the “Imax (%)” value in test [3] is on record as 100%; in test [4], 103.44%. The pIC50 in test [3] is 8.21; in test [4], 8.56.

In test [1], `Cc1cc2cc(n1)-c1c(C(F)F)nn(C)c1OC[C@H]1CCC(C1)CN1/C(=N/C2=O)Nc2ccc(N3CCN(C4CCN(c5c(F)cc(NC6CCC(=O)NC6=O)cc5F)CC4)CC3)cc21` (stereo partly drawn) [Example 99, 3-((4-(4-(4-((7^1R,7^3S,E)-1^3-(difluoromethyl)-1^1,2^6-dimethyl-3-oxo-5^2,5^3-dihydro-1^1H,5^1H-9-oxa-4-aza-5(2,1)-benzo[d]imidazola-2(2,4)-pyridina-1(4,5)-pyrazola-7(1,3)-cyclopentanacyclononaphane-5^6-yl)piperazin-1-yl)piperidin-1-yl)-3,5-difluorophenyl)amino)piperidine-2,6-dione] came in with a DC50 of 1.06 nM and a Dmax of 82.3%. Moreover, in test [2], half-maximal degradation (DC50) was put at 6 nM and the greatest degradation seen (Dmax) came to 85.6%. Besides, in test [3], the “Imax (%)” value was determined as 100.3% and the pIC50 is 8.10. In addition, in test [4], the “Imax (%)” value was 99.2% and the pIC50 was 8.66.

Take `Cc1cc2cc(n1)-c1c(C)nn(C)c1OC[C@H]1CC[C@H](C1)CN1/C(=N/C2=O)Nc2ccc(N3CCN(C4CCN(c5cc(F)c([C@H]6CCC(=O)NC6=O)c(F)c5)CC4)C[C@@H]3C)cc21` [Example 195, (R)-3-(2,6-difluoro-4-(4-((S)-3-methyl-4-((7^1R,7^3S,E)-1^1,1^3,2^6-trimethyl-3-oxo-5^2,5^3-dihydro-1^1H,5^1H-9-oxa-4-aza-5(2,1)-benzo[d]imidazola-2(2,4)-pyridina-1(4,5)-pyrazola-7(1,3)-cyclopentanacyclononaphane-5^6-yl)piperazin-1-yl)piperidin-1-yl)phenyl)piperidine-2,6-dione]: in test [1], the DC50 was found to be 1.83 nM and the Dmax stood at 90.9%. In test [2], this compound had a DC50 of 1.13 nM and a Dmax of 93.9%. Also, in test [3], the “Imax (%)” value amounted to 90.34% and the pIC50 was more than 9.89. In test [4], the “Imax (%)” value was found to be 99.96% and the pIC50 is 8.84.

`Cc1cc2cc(n1)-c1cnn(C)c1OC[C@H]1CC[C@H](C1)CN1/C(=N/C2=O)Nc2ccc(N3CCN(C4CCN(c5ccc(OC6CCC(=O)NC6=O)cc5)CC4)CC3)cc21` (stereo partly drawn) [Example 57, 3-(4-(4-(4-((7^1R,7^3S,E)-1^1,2^6-dimethyl-3-oxo-5^2,5^3-dihydro-1^1H,5^1H-9-oxa-4-aza-5(2,1)-benzo[d]imidazola-2(2,4)-pyridina-1(4,5)-pyrazola-7(1,3)-cyclopentanacyclononaphane-5^6-yl)piperazin-1-yl)piperidin-1-yl)phenoxy)piperidine-2,6-dione]: the DC50 in test [1] is 3.84 nM; in test [2], 3.14 nM. The values for the Dmax in test [1] and in test [2] were 82.6% and 58.5%, respectively. The “Imax (%)” value stood at 101% in test [3] and 97.9% in test [4]. Besides, the pIC50 is 7.98 in test [3] and 8.92 in test [4].
